# Test results as given in US20260258369A1, “GENERATION OF BRANCHING URETERIC BUD AND COLLECTING DUCT ORGANOIDS FROM HUMAN PLURIPOTENT STEM CELLS” (The Brigham and Women's Hospital, Inc., priority 2023, published 2026).
# Entries after “also recorded” stand apart in the source; their conditions may differ.
# How the values were obtained:
# [1] = system: V-type ATPase; experiment: Transwell open-circuit voltage and calculated current in FOXI1-induced (doxycycline-treated) CD cells; assay type: cell-based, human; conditions: open circuit transwell, amiloride 10 μM
# [2] = target: T1, ENaC (Homo sapiens, UniProt P37088+P51168+P51170); experiment: Ussing chamber short-circuit current (Isc) recordings in CD organoid-derived cells; assay type: cell-based; set-up: while the alpha subunit (SCNN1A) was expressed at lower levels; we confirmed expression at the protein level using an antibody specific to SCNN1B; the beta and gamma subunits were most abundant transcriptionally; endogenous in cells; host or cells: 2D cell line derived from hPSC-derived collecting duct organoids (principal cells), grown on transwell / Snapwell inserts
# T1 sequence (P37088 1-669): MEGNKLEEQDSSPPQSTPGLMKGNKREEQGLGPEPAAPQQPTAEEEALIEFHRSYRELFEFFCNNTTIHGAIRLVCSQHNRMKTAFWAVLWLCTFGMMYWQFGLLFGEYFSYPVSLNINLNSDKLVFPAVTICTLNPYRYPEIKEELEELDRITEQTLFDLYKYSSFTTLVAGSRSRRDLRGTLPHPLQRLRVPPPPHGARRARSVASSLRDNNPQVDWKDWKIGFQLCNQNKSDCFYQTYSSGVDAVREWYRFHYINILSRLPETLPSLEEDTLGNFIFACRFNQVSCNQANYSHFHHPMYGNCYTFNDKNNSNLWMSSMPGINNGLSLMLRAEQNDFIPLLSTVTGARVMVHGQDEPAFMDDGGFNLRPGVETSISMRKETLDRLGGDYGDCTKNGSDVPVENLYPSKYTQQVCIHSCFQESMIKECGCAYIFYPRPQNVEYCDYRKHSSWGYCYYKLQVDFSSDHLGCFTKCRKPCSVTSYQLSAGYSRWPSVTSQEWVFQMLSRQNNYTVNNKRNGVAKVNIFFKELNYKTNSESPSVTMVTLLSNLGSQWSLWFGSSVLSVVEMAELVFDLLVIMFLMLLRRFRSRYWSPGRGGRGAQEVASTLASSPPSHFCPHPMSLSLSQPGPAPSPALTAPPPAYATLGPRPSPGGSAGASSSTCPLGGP
# T1 sequence (P51168 1-640): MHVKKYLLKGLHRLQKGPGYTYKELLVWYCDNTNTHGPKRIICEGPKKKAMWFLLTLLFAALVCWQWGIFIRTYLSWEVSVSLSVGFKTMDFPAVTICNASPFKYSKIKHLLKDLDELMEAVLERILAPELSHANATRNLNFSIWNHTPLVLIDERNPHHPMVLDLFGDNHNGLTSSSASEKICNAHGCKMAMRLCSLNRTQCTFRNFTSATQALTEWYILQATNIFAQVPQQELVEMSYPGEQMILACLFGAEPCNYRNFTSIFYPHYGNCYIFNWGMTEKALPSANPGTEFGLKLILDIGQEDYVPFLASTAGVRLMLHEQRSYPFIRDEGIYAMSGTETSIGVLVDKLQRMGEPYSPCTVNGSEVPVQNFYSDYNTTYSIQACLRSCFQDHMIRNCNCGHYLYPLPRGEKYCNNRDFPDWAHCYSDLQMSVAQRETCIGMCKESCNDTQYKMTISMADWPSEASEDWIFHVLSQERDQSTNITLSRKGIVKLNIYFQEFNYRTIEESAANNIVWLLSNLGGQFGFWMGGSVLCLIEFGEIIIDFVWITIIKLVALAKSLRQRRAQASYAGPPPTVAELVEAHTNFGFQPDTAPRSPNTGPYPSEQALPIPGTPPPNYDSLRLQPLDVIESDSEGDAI
# T1 sequence (P51170 1-649): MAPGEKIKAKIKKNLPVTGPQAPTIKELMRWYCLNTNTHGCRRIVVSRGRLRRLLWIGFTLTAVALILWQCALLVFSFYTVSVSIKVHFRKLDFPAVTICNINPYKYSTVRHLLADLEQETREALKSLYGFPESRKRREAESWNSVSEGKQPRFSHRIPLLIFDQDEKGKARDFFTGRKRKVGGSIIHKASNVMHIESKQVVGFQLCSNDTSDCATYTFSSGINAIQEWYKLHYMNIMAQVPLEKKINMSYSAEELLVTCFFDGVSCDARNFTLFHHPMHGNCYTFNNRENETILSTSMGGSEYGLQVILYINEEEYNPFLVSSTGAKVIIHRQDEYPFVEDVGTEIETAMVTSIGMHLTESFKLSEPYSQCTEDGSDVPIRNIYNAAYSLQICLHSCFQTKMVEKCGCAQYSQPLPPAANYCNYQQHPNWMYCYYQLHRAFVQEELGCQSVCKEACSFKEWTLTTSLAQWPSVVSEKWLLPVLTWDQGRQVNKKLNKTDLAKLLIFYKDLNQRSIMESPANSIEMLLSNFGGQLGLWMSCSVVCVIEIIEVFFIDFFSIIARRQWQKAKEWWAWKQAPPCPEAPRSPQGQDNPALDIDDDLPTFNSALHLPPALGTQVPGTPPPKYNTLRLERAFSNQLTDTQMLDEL
# [3] = target: T1, ENaC; conditions: amiloride 10 μM, open circuit
# [4] = target: T2, V-type ATPase (Homo sapiens, UniProt P27449); experiment: Ussing chamber short-circuit current in FOXI1-induced CD cells; conditions: closed circuit
# [5] = system: CD organoid-derived cells; experiment: Aldosterone response of transepithelial current in CD organoid-derived cells; assay type: cell-based, human; conditions: 24 hours; for increase in amiloride-sensitive current: aldosterone 10-100 nM, no dexamethasone
# [6] = target: T2, V-type ATPase; experiment: Transwell open-circuit voltage and calculated current in FOXI1-induced (doxycycline-treated) CD cells; assay type: cell-based; conditions: bafilomycin 10 nM, added after amiloride, open circuit
structure (smiles),measurement,setting,value
N=C(N)NC(=O)c1nc(Cl)c(N)nc1N [amiloride],amiloride sensitivity of FOXI1-induced cells,[1],largely lost sensitivity
same,residual short-circuit current after raising the concentration,"[2]; amiloride 100 μM, Ussing chamber",eliminated the small amount of residual current; also recorded: completely abolished
same,inhibition at 10 µM,[2]; read-out: inhibition of short-circuit current,> 95%
same,transepithelial resistance,[3],raising the transepithelial resistance
same,transepithelial voltage and current,[3]; within several minutes,completely abolished
same,"short-circuit current in FOXI1-induced cells, amiloride",[4],small increase in current
"C[C@]12CCC(=O)C=C1CC[C@@H]1[C@@H]2[C@@H](O)C[C@]2(C=O)[C@@H](C(=O)CO)CC[C@@H]12 [Aldosterone, aldosterone]",increase in amiloride-sensitive current,[5],~ 2.5 fold
same,increase in amiloride-sensitive current,[5]; listed as aldosterone,approximately 2.5 fold
same,transepithelial voltage and current,[5]; varying concentrations of aldosterone,dose-dependent increase
"CO/C1=C\C(C)=C\[C@@H](C)[C@@H](O)[C@@H](C)C/C(C)=C/C=C/[C@H](OC)[C@@H]([C@@H](C)[C@@H](O)[C@H](C)[C@@]2(O)C[C@@H](O)[C@H](C)[C@@H](C(C)C)O2)OC1=O [bafilomycin, bafilomycin-A1]",voltage and calculated current in FOXI1-induced cells,[6],completely suppressed
same,"short-circuit current in FOXI1-induced cells, bafilomycin",[4],near complete inhibition of the current
